Assay results from patent publication US11179363B2, “Non-steroidal selective glucocorticoid receptor agonistic modulators (SEGRAMs) and uses thereof” (ASSOCIATION POUR LA RECHERCHE À L'IGBMC (ARI), priority 2017, dated 2021).

Tests used:
[1] = tested on: HDM-induced asthma-like allergic lung inflammation; assay: House dust mite (HDM)-induced asthma-like allergic lung inflammation; format: in vivo, mice
Protocol: Glucocorticoids have been (Pearlman et al., 1997. Ann Allergy Asthma Immunol. 78(4):356-62), and are still, widely used in asthma therapy. In order to investigate the possible CpdX anti-inflammatory activity in vivo, mice were sensitized and challenged with either ovalbumin (OVA) or house dust mite (HDM) to induce an asthma-like allergic lung inflammation.
Mice were intranasally sensitized with 1 μg HDM from D0 to D4, and further intranasally sensitized with 10 μg HDM on D14 and D21. Mice were then subdivided into eight groups, and on D29, D30 and D31, each mouse was again intranasally challenged with […]. The first seven groups received respectively 0.5 mg/kg of body weight of Dex, CpdX, CpdX(eA), CpdX(eB), CpdX-D3, CpdX-D3(eA) or CpdX-D3(eB), while the eighth group served as a control.
On D32, the airway responsiveness was invasively determined using a computer-controlled small animal ventilator (FlexVent® system, SCIREQ Technologies). Mice were anesthetized with xylazine (15 mg/kg, i.p.), followed 15 minutes later by an i.p. injection of pentobarbital sodium (54 mg/kg). An 18-gauge metal needle was then inserted into the trachea, each mouse was connected to the FlexVent® ventilator and quasi-sinusoidally ventilated with a tidal volume of 10 mL/kg at a frequency of 150 breaths/minute and a positive end-expiratory pressure of 2 cm H2O, in order to achieve a mean lung volume close to spontaneous breathing. After baseline measurement, mice were challenged for 10 seconds with a saline aerosol and, at 4.5-minute intervals, with 50 mg/mL methacholine. Airway resistance and elastance were expressed as cmH2O.s/mL and cmH2O/mL respectively.
The lung allergic inflammation was assessed by examination of the bronchoalveolar lavage (BAL) fluid from each of these HDM-challenged mice. The total BAL cells, eosinophils, neutrophils, macrophages and lymphocytes were counted. RNA transcripts were extracted from lung samples. RNA transcripts of IL-1β, IL-6, IL-4, IL-5, IL-13, Eotaxin, CCL4, IL-10 and TNFα were analyzed by q-RT-PCR. Lung tissues were harvested and histological (with H&E staining) and immunohistochemical analyses were also carried out (with eosinophil-specific and neutrophil-specific antibodies).

[2] = tested on: thymus, spleen, adrenal gland and kidney; assay: Organ weights (thymus, spleen, adrenal gland, kidney) after three-month treatment; format: in vivo, B6 male mice; details: s.c. 1 mg/kg daily, three months
Protocol: B6 male mice (8-week-old) were daily subjected for three months to a subcutaneous injection of either vehicle (NaCl 0.9%), Dex, CpdX, CpdX(eA), CpdX(eB), CpdX-D3, CpdX-D3(eA) or CpdX-D3(eB) (1 mg/kg body weight, diluted in vehicle). Following these treatments, four organs (thymus, spleen, adrenal gland and kidney) were harvested and weighted.

[3] = tested on: dorsal skin of Balb/C mice; assay: Skin epidermis atrophy after 8-day topical treatment of dorsal skin; format: in vivo; details: eight-day topical treatment
Description: To investigate whether, similarly to Dex, a topical administration of CpdX could result in a skin atrophy, Balb/C mice were shaved on the dorsal skin. Ethanol (vehicle), Dex, CpdX or either one of its two enantiomers CpdX(eA) or CpdX(eB), as well as the deuterated form CpdX-D3 or either one of its two enantiomers CpdX-D3(eA) or CpdX-D3(eB), were topically applied onto the dorsal skin for 8 days.
Upon completion of the treatments, RNA transcripts were extracted from dorsal skin samples and the transcripts of Kindlin-1 and REDD1 genes were analyzed by q-RT-PCR. Histological and morphometric analyses of the dorsal skin were also performed.

[4] = tested on: OVA-induced allergic conjunctivitis; assay: Ovalbumin (OVA)-induced allergic conjunctivitis; format: in vivo, Balb/C mice; details: 0.1% instillation D22 to D24, 20 minutes after the last OVA challenge
Protocol: To investigate the anti-inflammatory effect of CpdX or CpdX-D3 on an allergic conjunctivitis, Balb/C mice were intraperitoneally sensitized with 50 μg OVA with alum on both days D1 and D8, and then challenged from D15 to D21 with 250 μg OVA in 5 μL of sterilized vehicle (0.9% NaCl), which were directly instilled onto the conjunctival sac. From D22 to D24, mice were divided into several groups, and received instillations with either OVA alone, OVA together with 0.1% of either Dex, CpdX, CpdX(eA), CpdX(eB), CpdX-D3, CpdX-D3(eA) or CpdX-D3(eB).
The clinical appearance of mouse eyes was evaluated 20 minutes after the last instillation on D24. Clinical signs (conjunctival hyperemia, lid edema and tearing) were scored to evaluate the occurrence and severity of conjunctivitis as described by Gimenes et al. (2015. Experimental Eye Research 134:24-32). Parameters were graded on a scale ranging from 0 to 3, (0=absence, 1=mild, 2=moderate, and 3=severe symptoms), each animal receiving a total clinical score ranging from 0 to 9. The data were expressed as mean±SEM with at least four mice per treatment.

[5] = tested on: adrenal glands; assay: Corticosterone synthesis and adrenal gland after three-month treatment; format: in vivo, B6 male mice; details: three months; for cortex layers, most notably the fasciculata zone, of the adrenal glands (histology) / transcripts of Cyp11a, Cyp11b1 and HSD3β genes in adrenal glands (corticosterone synthesis pathway): s.c. 1 mg/kg daily; for transcripts of Cyp11a, Cyp11b1 and HSD3β genes in adrenal glands (corticosterone synthesis pathway): q-RT-PCR; for plasmatic corticosterone level at 10 a.m.: vs Vehicle
Protocol: B6 male mice (8-week-old) were daily subjected for three months to either a subcutaneous injection of vehicle (NaCl 0.9%), Dex, CpdX, CpdX(eA), CpdX(eB), CpdX-D3, CpdX-D3(eA) or CpdX-D3(eB) (1 mg/kg body weight, diluted in vehicle).
Following this long-term treatment, blood was collected at 10 a.m. and 6 p.m. by retro-orbital puncture in lithium-heparin coated vials, and the plasmatic level of corticosterone was determined. Adrenal glands were harvested and weighted. RNA transcripts were extracted and transcripts of the Cyp11a, Cyp11b1, Cyp11b2 and HSD3β genes were analyzed by q-RT-PCR. Histological analyses of the adrenal glands were also carried out.

[6] = tested on: DSS-induced Th17 ulcerative colitis; assay: Dextran sodium sulfate (DSS)-induced ulcerative colitis; format: in vivo, Balb/C mice; details: for pro-inflammatory genes overexpressed in DSS-induced ulcerative colitis (IL-1β, IL-6, IL-17a, IL-17f, TSLP, MMP13): colon, q-RT-PCR, D14; for colonic villus/crypt structure (histology) / mucosal and submucosal cell infiltration (histology): i.p. 1 mg/kg on D11, D12, D13, 3% DSS 13 days
Protocol: To investigate the anti-inflammatory activity of CpdX and CpdX-D3 on a Th17 ulcerative colitis, Balb/C mice were treated with 3% DSS in drinking water for 13 days, with or without an intraperitoneal administration of either Dex, CpdX, CpdX(eA), CpdX(eB), CpdX-D3, CpdX-D3(eA) or CpdX-D3(eB) (1 mg/kg of body weight) on D11, D12 and D13.
At D14, RNA transcripts were extracted from mouse colons. IL-1β, IL-6, IL-17a, IL-17f, TSLP and MMP13 transcripts were analyzed by q-RT-PCR. Colon samples were also harvested for histological analyses (with H&E staining).

[7] = HDM model, 0.5 mg/kg, D32, vs control group
[8] = HDM model, lung paraffin sections
[9] = methacholine 50 mg/mL, FlexVent

| Structure (SMILES) | number of neutrophils and macrophages in BAL ([1]; HDM model, 0.5 mg/kg, D32) | total number of BAL cells, eosinophils and lymphocytes [1, 7] | eosinophils in lung (immunohistochemistry, eosinophil-specific antibodies) ([1]; HDM model, data not shown) | lung expression of IL-10 and TNFα ([1]; HDM model, data not shown) | neutrophils in lung (immunohistochemistry, neutrophil-specific antibody) ([1]; HDM model, data not shown) | peribronchiolar and perivascular inflammatory cell infiltration (histology) [1, 8] | lung expression of pro-inflammatory genes (IL-1β, IL-6, IL-4, IL-5, IL-13, Eotaxin, CCL4) ([1]; HDM model, q-RT-PCR) | HDM-induced airway hyperresponsiveness (AHR), airway resistance and elastance [1, 9] | thymus apoptosis (thymus weight) [2] | epidermal thickness (morphometric analyses) [3] | clinical signs of allergic conjunctivitis (conjunctival hyperemia, lid edema and tearing) [4] | cortex layers, most notably the fasciculata zone, of the adrenal glands (histology) [5] | transcripts of Cyp11a, Cyp11b1 and HSD3β genes in adrenal glands (corticosterone synthesis pathway) [5] | plasmatic corticosterone level at 10 a.m. [5] | pro-inflammatory genes overexpressed in DSS-induced ulcerative colitis (IL-1β, IL-6, IL-17a, IL-17f, TSLP, MMP13) [6] | colonic villus/crypt structure (histology) [6] | mucosal and submucosal cell infiltration (histology) [6] | total number of BAL cells, eosinophils and lymphocytes ([1]; HDM model, 0.5 mg/kg, D32, vs control group; 0.5 mg/kg) |
| --- | --- | --- | --- | --- | --- | --- | --- | --- | --- | --- | --- | --- | --- | --- | --- | --- | --- | --- |
| COc1ccc(F)cc1C(C)(C)CC(O)(CNc1ccc2c(c1)COC2=O)C(F)(F)F (racemic) [CpdX, 5-[4-(5-fluoro-2-methoxyphenyl)-2-hydroxy-4-methyl-2-(trifluoromethyl)pentylamino]-isobenzofuran-1(3H)-one] | No significant change | significantly decreased | decreased | not affected | no significant change | strongly decreased | significantly and similarly decreased | similarly reduced | did not result in any significant thymus apoptosis | not significantly decreased | considerably reduced | markedly increased | increased | much higher | similarly repressed | almost reestablished | significantly decreased | – |
| [2H]C([2H])([2H])Oc1ccc(F)cc1C(C)(C)CC(O)(CNc1ccc2c(c1)COC2=O)C(F)(F)F (racemic) [CpdX-D3, 5-{4-[2-(methoxy-D3)-5-fluorophenyl]-2-hydroxy-4-methyl-2-(trifluoromethyl)pentylamino}isobenzofuran-1(3H)-one] | No significant change | significantly decreased | decreased | not affected | no significant change | strongly decreased | significantly and similarly decreased | similarly reduced | did not result in any significant thymus apoptosis | not significantly decreased | considerably reduced | markedly increased | increased | much higher | similarly repressed | almost reestablished | significantly decreased | – |
| COc1ccc(F)cc1C(C)(C)CC(O)(CNc1ccc2c(c1)COC2=O)C(F)(F)F (single isomer, unassigned; enantiomer a) [CpdX(eA), 5-[4-(5-fluoro-2-methoxyphenyl)-2-hydroxy-4-methyl-2-(trifluoromethyl)-pentylamino]isobenzofuran-1(3H)-one enantiomer A] | – | – | – | – | – | decreased | efficiently decreased | reduced | did not result in any significant thymus apoptosis | not significantly decreased | considerably reduced | markedly increased | increased | much higher | similarly repressed | almost reestablished | significantly decreased | efficiently decreased |
